Experimental data as given in PubChem BioAssay (NCI).
Values joined by “and” are separate entries in the source; they are usually repeats but may differ in a detail not shown here. Equal entries are not always repeated.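 Test compounds were applied to cells in 96-well plates for 48 hours at 5 doses. The concentration for 50% growth inhibition is given as GI50. TGI marks complete inhibition of growth.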

Columns and labels:
Test in all cases: NCI-60 cell line screen, 48 h
NCI-H23 lung = system: NCI-H23 lung
SN12C renal = system: SN12C renal
SNB-75 CNS = system: SNB-75 CNS
NCI/ADR-RES ovarian = system: NCI/ADR-RES ovarian
KM12 colon = system: KM12 colon
PC-3 prostate = system: PC-3 prostate
SF-295 CNS = system: SF-295 CNS
SF-539 CNS = system: SF-539 CNS
MCF7 breast = system: MCF7 breast
SK-MEL-28 melanoma = system: SK-MEL-28 melanoma

SMILES	GI50 (NCI-H23 lung)	TGI (NCI-H23 lung)	GI50 (SN12C renal)	TGI (SN12C renal) [µM]	GI50 (SNB-75 CNS) [µM]	TGI (SNB-75 CNS)	GI50 (NCI/ADR-RES ovarian)	TGI (NCI/ADR-RES ovarian)	GI50 (KM12 colon)	TGI (KM12 colon)	GI50 (PC-3 prostate)	TGI (PC-3 prostate)	GI50 (SF-295 CNS)	TGI (SF-295 CNS)	GI50 (SF-539 CNS)	TGI (SF-539 CNS)	GI50 (MCF7 breast)	TGI (MCF7 breast)	GI50 (SK-MEL-28 melanoma)	TGI (SK-MEL-28 melanoma) [µM]
CC/C=C\CCC/C=C1/C(=O)C=C[C@@H]1C/C=C\CCCC(=O)O	3.37 µM	13.7 µM	3.05 µM	8.5	18	44.9 µM	2.96 µM	11.8 µM	2.46 µM	6.62 µM	3.64 µM	9.82 µM	2.87 µM	8.13 µM	3.52 µM	12.4 µM	3.07 µM	16.8 µM	3.13 µM	10.6
c1ccc(-c2nc(N3CCNCC3)c3nc(-c4ccccc4)oc3n2)cc1	1.76 µM	3.32 µM	1.69 µM	3.29	1.26	2.52 µM	1.87 µM	3.69 µM	1.91 µM	3.6 µM	1.66 µM	3.24 µM	1.86 µM	3.38 µM	1.72 µM	3.13 µM	1.7 µM	3.58 µM	1.81 µM	3.29
O=C(/C=C/c1cccc(Cl)c1)c1ccc(Cl)cc1Cl	10.2 µM	19.3 µM	14.7 µM	32	9.5	30.1 µM	11.3 µM	21.6 µM	9.76 µM	21.6 µM	15.2 µM	> 50 µM	10.1 µM	22.4 µM	12.6 µM	28 µM	3.49 µM	> 50 µM	9.69 µM	26.6
Oc1c(CN2CCCC2)cc(COCc2ccccc2)c2cccnc12	2.89 µM	11.6 µM	4.04 µM	20.8	2.79	28.6 µM	0.152 µM	0.761 µM	2.14 µM	18.2 µM	2.73 µM	23.3 µM	2.86 µM	13.7 µM	2.89 µM	10.1 µM	2.82 µM	13.3 µM	3.49 µM	18.6
COc1ccc(/C=C\c2cc(OC)c(OC)c(OC)c2)c(NS(=O)(=O)c2ccc(C)cc2)c1O	0.0451 µM	49.6 µM	0.0736 µM	> 76.2	0.0304	> 100 µM	0.169 µM	14.7 µM	0.0383 µM		0.04 µM	> 100 µM	0.0509 µM		0.0237 µM	0.0641 µM	0.0333 µM	> 39.2 µM	0.602 µM	> 96.2
COc1ccc2c3c(c(OCCCN(C)C)nc2c1)-c1ccc(Cl)cc1C3=O	11 µM	25.3 µM	5.33 µM	21.3	1.55	18.3 µM	4.79 µM	26 µM	4.01 µM	18 µM	4.72 µM	19.4 µM	10.6 µM	23.8 µM	8.2 µM	21.3 µM	1.27 µM	13 µM	12.1 µM	27
Cc1nc(NC(=O)N2CCC[C@H]2C(N)=O)sc1-c1ccnc(C(C)(C)C(F)(F)F)c1	10.2 µM and > 10 µM	61.9 µM and > 10 µM	6.43 µM and > 10 µM	> 100	0.594	15.5 µM	14.6 µM and > 10 µM	85.8 µM and > 10 µM	15.4 µM and > 10 µM	> 91.5 µM	2.19 µM and 3.61 µM	25.4 µM and > 10 µM	2.79 µM and 4.1 µM	16 µM and > 10 µM	3.93 µM and 4.6 µM	24.3 µM and > 10 µM	0.12 µM and 0.296 µM	> 38.4 µM	4.72 µM and 6.71 µM	> 61.6
CN(C)c1ccc(/C=C/c2ccnc3ccccc23)cc1	3.83 µM	> 100 µM and 23 µM	3.95 µM	> 100	2.41	> 100 µM and 11.9 µM	2.26 µM		3.11 µM	> 100 µM and 33.7 µM	3.28 µM	> 100 µM and 46.6 µM	3.43 µM	> 100 µM and 21.2 µM	3.14 µM	> 100 µM and 17.5 µM	0.922 µM	> 100 µM and 44.4 µM	9.01 µM	> 100
O=C(NNS(=O)(=O)c1cc(C(F)(F)F)cc(C(F)(F)F)c1)c1cnn(-c2ccc(Cl)cc2)c1C(F)(F)F	18.5 µM	40.8 µM	17.2 µM	34.8	24.4	75.3 µM	19.6 µM	41 µM	18.5 µM	39.9 µM	16.4 µM	32.8 µM	14.9 µM	44 µM	18.4 µM	33.5 µM	21.5 µM	58.9 µM	20.3 µM	51.7
